Series [1] is described as follows: In-vivo study of bioavailability in dogs of capsules filled with salts. As to the method: Four male dogs were used per tested formulation. The animals were randomized over the test groups by a computer-generated random algorithm according to body weight, with all animals within ±20% of the sex mean. A health inspection was performed prior to commencement of treatment to ensure that the animals were in a good state of health. The dogs were subjected to an acclimatization period of at least 5 days before the start of treatment under laboratory conditions. A controlled environment was maintained in the room. The animals were dosed once orally with the formulations of example 1, and blood was collected from all animals under light ether anaesthesia at regular intervals for a period of 12, 24 or 48 hours after dosing.
The mean pharmacokinetic parameters relating to the mean plasma concentration with time of each test formulation are shown in Table 3. The standard deviation, where calculated, is shown between brackets.

Series [2] can be described thus: Stability of salts of compound (A) (decomposition to compound (A) and free acid). It is filed as physicochemical. The settings on record: partial or complete decomposition to compound (A) and the free acid. From the text: Contrary to a number of other salts of compound (A) that are unstable, the compound of formula (I) is a stable salt.
[3] abbreviates: male dogs, dosed once orally, capsules, dose normalized to 1 mg/kg, mean.

The structures appear in SMILES notation.

Broadly, the Tmax is the time at which the peak concentration occurs. What is called Cmax is the peak of the concentration-time curve.

Turning to `Br.Cc1cc(C#N)cc(C)c1Oc1nc(Nc2ccc(C#N)cc2)nc(N)c1Br` [HBr salt, 4-[[4-amino-5-bromo-6-(4-cyano-2,6-dimethylphenyloxy)-2-pyrimidinyl]amino]benzonitrile hydrobromide], the Tmax in series [1] (dog, plasma, po, 118.6 mg salt per capsule, male dogs, dosed once orally, capsules of example 1, mean) came out at 4.5 h. Moreover, the Cmax in series [1] (dog, plasma, po, 118.6 mg salt per capsule, male dogs, dosed once orally, capsules, without dose normalization, mean) worked out at 366 ng/mL. Besides, the AUC(0-t) in series [1] (dog, plasma, po, 118.6 mg salt per capsule, male dogs, dosed once orally, capsules, without dose normalization, mean, read-out: AUC0-last (without dose normalization)) stood at 5860 ng·h/mL. In series [1] (dogs, oral capsules), the “bioavailability in dogs compared with other salts (Cmax, AUC0-last)” value is on record as “improved bioavailability”. For the same compound, the tlast in series [1] (male dogs, dosed once orally, capsules of example 1, mean) worked out at 48 h. For the same compound, in series [1] (setting [3]), the “AUC0-last (dose normalized to 1 mg/kg)” value was 516.1 ng·h/mL and the “Cmax (dose normalized to 1 mg/kg)” value stood at 31.73 ng/mL. In series [2], the “stability of the salt” value is recorded as “stable”.

These data come from patent publication US11253479B2, “Hydrobromide salt of an anti-HIV compound” (Janssen Sciences Ireland UC, priority 2006, dated 2022).
